# According to patent US5760001A, “Cytokine restraining agents and methods of use in pathologies and conditions associated with altered cytokine levels” (Trega Biosciences, Inc., priority 1995, dated 1998):
# Experiments:
# Format in all cases: in vivo
# [1] = test system: Male Harlan Sprague-Dawley rats; experiment: Adult respiratory distress syndrome: LPS-induced PMN count in broncho-alveolar lavage fluid; conditions: 100 μg/kg IP at 0, 2 and 4 hr; intratracheal LPS 5 mg/kg; lavage at 6 hr
# Procedure: These experiments were performed using a modification of the methods described by Ulich et al., Am. J. Pathol. 141:61-68 (1992) and by Wheelden et al., Lab. Animals 26:29-37 (1992), each of which is incorporated herein by reference. Male Harlan Sprague-Dawley rats were anesthetized using a mixture of 70 mg/kg ketamine and 6 mg/kg rompun injected IP. A 2-3 cm incision was made in the neck of each anesthetized rat and its trachea was exposed by blunt dissection of the surrounding soft tissue. The rats were suspended on a near vertical slab and intratracheal injections were performed by inserting into the exposed trachea, at a point 1 cm posterior to the larynx, a 25G×1/2 inch needle attached to a 1 cc syringe.
# Each rat received 0.5 ml/kg of saline or 0.5 ml/kg of 10 mg/ml (5 mg/kg) LPS endotoxin via slow intratracheal administration. Immediately following administration of the LPS endotoxin, rats were injected IP with 1 ml/kg of either saline (control) or saline containing various concentrations of EX-2 (treated). The rats were maintained in the elevated position for 1-2 min to facilitate distribution of the LPS and saline into the lung. The incisions were closed and the rats were allowed to recover. […]
# The total polymorphonuclear leukocytes (PMN; neutrophils) in the broncho-alveolar lavage fluid were counted in the EX-2-treated rats and compared with the number in the control rats.
# [2] = test system: Adult male Sprague-Dawley rats; experiment: Disuse deconditioning (tail suspension) in rats; conditions: 1 or 5 μg/kg IP twice daily
# Procedure: Adult male Sprague-Dawley rats (355-365 g) were used in this study. Animals were housed individually in standard rat cages and were acclimated on a treadmill for 4 days. The next day, a baseline tail bleed was performed, followed by a maximal treadmill stress test the day after. The day following the stress test, the animals were divided into the appropriate treatment and control groups and the animals were suspended by their tails in suspension cages, which simulates weightlessness and, therefore, deconditions the animals. Another group of control animals was placed in standard rat cages with grated flooring similar to that utilized in the suspension cages. All animals were housed one per cage and supplied with food and water ad libitum. Body weights and food consumptions were measured daily Animals received twice daily IP injections of 1 μg/kg or 5 μg/kg body weight of EX-2 (treated), or 1 ml/kg body weight of saline (control). On day 10, all animals were stress tested on the treadmill until they reached exhaustion. Data on maximum VO2 and running time were collected and compared to pre-suspension results. On day 14, all animals were sacrificed, and blood, tissues, and organs were collected for further analysis. All procedures and tests were performed blind to avoid researcher subjectivity. Statistical significance (p<0.05) between groups was evaluated by ANOVA with Student-Newman-Keuls test for multiple comparisons. All data are reported as the mean±standard error (SE).
# All of the animals were subjected to the stress tests, which measured exercise time and maximal VO2. As well, levels of the oxidative enzyme soleus citrate synthase and tibia bone density were measured.
# Soleus citrate synthase was attenuated by 50%.
# male Sprague-Dawley rats [3] = experiment: Cyclosporine-induced nephrotoxicity; conditions: for extracellular fluid volumes (ECF): second study, control 27.6±1.9, CsA and vehicle 27.5±1.7
# Procedure: In the first study, male Sprague-Dawley rats (n=43) with a weight range of 240-290 g at the initiation of the cyclosporine A (CsA) treatment were divided into 4 weight matched groups. The groups were as follows: (1) Control: no CsA, no EX-2, treatment only with CsA vehicle (PBS) PO and EX-2 vehicle (also PBS) IP; (2) CsA: treatment with CsA (50 mg/kg in PBS administered PO daily at 0830 hr for 9 days) and IP injections of PBS (Ex-2 vehicle); (3) CsA and 50 μg: CsA treatment identical to group 2 with the addition of EX-2 (50 μg/kg IP administered daily at 0800 and 1700 hr in EX-2 vehicle); and (4) CsA and 500 μg: CsA treatment identical to groups 2 and 3, and EX-2 treatment protocol similar to group 3 except that the dose of EX-2 was 500 μg/kg BW. After deep anesthesia was assured, the rats were cannulated in the trachea (PE 240) jugular vein, femoral artery, and bladder (PE 50 for the previous 3 cannulations).After cannulation, infusion of ^3 H-inulin was initiated 50 min prior to the measurement period to assess glomerular filtration rate, renal blood flow and plasma flow. Renal blood flow was determined by the inulin extraction technique. At the end of the study, the kidneys were removed for histological analysis.
# In the second study, male Sprague-Dawley rats (n=31) with a weight range of 240-290 g at the time of initiation of the cyclosporine treatment were divided into 4 weight-matched groups. The time course and protocol of this study matched the first study with the following exceptions: (1) The daily dose of CsA was reduced to 30 mg/kg and was administered subcutaneously (SC) and (2) the 50 μ/kg dose of EX-2 was substituted with a twice daily dose of 200 μg/kg. The 500 μg/kg dose of EX-2 was repeated in this study. Renal hemodynamics were determined and extracellular fluid volumes were also assessed.
# In the second studio, where extracellular fluid volumes (ECF) were measured, there were no differences in ECF among control and treatment groups (27.6±1.9 in control, 27.5±1.7 in CsA and vehicle, 26.2±0.9 in CsA+200 μg/kg EX-2, and 25.7±1.4% in CsA+500 μg/kg EX-2).
# The results from the two experiments are shown in FIGS. 1a and 1b and provide evidence that a cytokine restraining peptide of the present invention reduces cyclosporine-induced nephrotoxicity and the damage caused thereby.
# male Sprague-Dawley rats [4] = experiment: Streptozotocin-induced diabetes; conditions: STZ 65 mg/kg iv; EX-2 150 μg/kg every 8 hr for 72 hr
# Procedure: Male Sprague-Dawley rats were given 65 mg/kg of streptozotocin (STZ) intravenously through the tall vein. Rats were divided into two groups. The first group was administered EX-2, 150 μg/kg every 8 hr for 72 hr and the second group was a control. Blood samples were withdrawn under ether anesthesia every 8 hr for the first 72 hr, then every 12 hr or 24 hr until the end of the observation period. Plasma samples were assayed for glucose using a glucose assay kit (Trinder, Sigma Chemical Co.). As shown in Table VI below EX-2 effect a 72% reduction in blood glucose levels.
substance,measurement,setting,value
Ac-Nle-Gln-His-(D)Phe-Arg-(D)Trp-Gly-NH2 [EX-2],Reduction in LPS-induced PMN Count,[1],58%
same,"Soleus Citrate Synthase, % Attenuation of suspension-induced decrease",[2]; 14 days suspension,50%
same,"Tibia Bone Density, % Attenuation of suspension-induced decrease",[2]; 14 days suspension,50%
same,"Exercise Time, % Attenuation of suspension-induced decrease",[2]; treadmill stress test day 10,44%
same,"Maximal VO2, % Attenuation of suspension-induced decrease",[2]; treadmill stress test day 10,80%
same,changes in ECF as a result of treatment,male Sprague-Dawley rats [3]; CsA-treated rats,no changes
same,renal blood flow,male Sprague-Dawley rats [3]; CsA-treated rats,not different from control
same,urinary protein excretion compared to CsA-treated rats,male Sprague-Dawley rats [3]; CsA-treated rats,did not increase
same,urinary protein excretion normalized to glomerular filtration rate,male Sprague-Dawley rats [3]; CsA-treated rats,trend to decreased
same,GFR compared to CsA and vehicle controls,"male Sprague-Dawley rats [3]; both studies, CsA-treated rats",significantly increased
same,extracellular fluid volumes (ECF),male Sprague-Dawley rats [3]; CsA 30 mg/kg SC + 200 μg/kg EX-2 twice daily,26.2±0.9%
same,extracellular fluid volumes (ECF),male Sprague-Dawley rats [3]; CsA 30 mg/kg SC + 500 μg/kg EX-2 twice daily,25.7±1.4%
same,"STZ Diabetes: Blood Glucose (mg/dl), % Reduction of induced increase",male Sprague-Dawley rats [4],72%
